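Protocol summary: plate cells (96-well), add compound at 5 concentrations, incubate 48 h, interpolate endpoints linearly. TGI marks complete inhibition of growth.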
How the values were obtained:
Assay in all cases: inhibition of tumour cell growth, NCI panel, 48 h
786-0 renal = system: 786-0 renal
A498 renal = system: A498 renal
ACHN renal = system: ACHN renal
DLD-1 colon = system: DLD-1 colon
DMS 273 small cell lung = system: DMS 273 small cell lung
HOP-92 NSCLC = system: HOP-92 NSCLC
NCI-H460 lung = system: NCI-H460 lung
OVCAR-3 ovarian = system: OVCAR-3 ovarian
SF-268 CNS = system: SF-268 CNS
SW-620 colon = system: SW-620 colon
BT-549 breast = system: BT-549 breast
DU-145 prostate = system: DU-145 prostate
EKVX NSCLC = system: EKVX NSCLC
HS 578T breast = system: HS 578T breast
MCF7 breast = system: MCF7 breast
MDA-MB-231 breast = system: MDA-MB-231 breast
MDA-MB-435 = system: MDA-MB-435
NCI/ADR-RES ovarian = system: NCI/ADR-RES ovarian
PC-3 prostate = system: PC-3 prostate
MDA-N = system: MDA-N

Row | SMILES | TGI (786-0 renal) [µM] | TGI (A498 renal) [µM] | TGI (ACHN renal) [µM] | TGI (DLD-1 colon) [µM] | TGI (DMS 273 small cell lung) [µM] | TGI (HOP-92 NSCLC) [µM] | TGI (NCI-H460 lung) [µM] | TGI (OVCAR-3 ovarian) [µM] | TGI (SF-268 CNS) [µM] | TGI (SW-620 colon) [µM] | TGI (BT-549 breast) [µM] | TGI (DU-145 prostate) [µM] | TGI (EKVX NSCLC) [µM] | TGI (HS 578T breast) [µM] | TGI (MCF7 breast) [µM] | TGI (MDA-MB-231 breast) [µM] | TGI (MDA-MB-435) [µM] | TGI (NCI/ADR-RES ovarian) [µM] | TGI (PC-3 prostate) [µM] | TGI (MDA-N) [µM]
1 | Nc1ccccc1N | > 100 | > 100 | > 100 | > 100 | > 100 | > 100 | > 100 | > 100 | > 100 | > 100 |  |  |  |  |  |  |  |  |  | 
2 | O=C1c2cc(Br)ccc2-c2ccc3c4ccc5c6c(ccc(c7ccc1c2c73)c64)C(=O)c1cc(Br)ccc1-5 | > 100 | > 100 | > 100 |  |  | > 100 | > 100 | > 100 | > 100 | > 100 | > 100 | > 100 | > 100 | > 100 | > 100 | > 100 | > 100 | > 100 | > 100 | 
3 | O=C(O)C(Cc1cc(I)c(O)c(I)c1)C1CCCCC1 (stereo not drawn) | > 100 | 63.7 | > 100 |  |  | > 100 | 46 | 38.5 | > 100 | > 100 | > 100 | > 100 | > 100 | > 100 |  | 72.5 | > 100 | > 100 | 41.5 | > 100
4 | CCOC(=O)CC1=N/C(=N/C(=N)N[N+](=O)[O-])SC1 | > 100 | > 100 | > 100 | > 100 | > 100 | > 100 | > 100 | > 100 | > 100 | > 100 |  |  | > 100 |  |  |  |  |  |  | 
5 | NCCCCCC(CCN)SCC1OC(n2cnc3c(N)ncnc32)C(O)C1O (stereo not drawn) |  | > 1500 |  | > 1500 | > 1090 | > 1240 | > 1500 | > 1500 | > 1500 | > 1500 |  |  | > 1500 |  | > 1500 |  |  | > 1500 |  | 
6 | N=c1sc2ccccc2n1CCS (tested in a mixture with another compound) | 35.8 | 33.2 | 31.7 |  |  | 38.4 | 27.5 | 40.9 | 49.1 | > 100 | 48.4 | 46 | 62.3 | > 100 | 25.6 | 35.9 | 36.3 | 45.3 | > 100 | > 100
7 | NC(Cc1ccc(CP(=O)(O)O)cc1)C(=O)O (stereo not drawn) |  |  | > 100 |  |  | > 100 | > 100 | > 100 | > 100 | > 100 |  | > 100 | > 100 | > 100 | > 100 | > 100 | > 100 | > 100 | > 100 | > 100
8 | COc1ccc(-c2cc(N3CCN(c4ccc(Cl)cc4)CC3)c(C#N)c(=O)o2)cc1 |  | 49.4 | 35.2 | > 100 | 34.4 | > 100 | 28.9 |  | 33.5 | > 100 |  |  | 41.7 |  |  |  |  |  |  | 
9 | C/C(=N/NC(=O)c1ccncc1)C(F)(F)F |  | > 100 |  |  |  | > 100 |  | > 100 |  |  | > 100 | > 100 |  | > 100 | > 100 |  | > 100 | > 100 | > 100 | 
10 | O=C(O)c1ccccc1CN1CCCC(C(=O)O)C1 (stereo not drawn) | > 100 | > 100 | > 100 |  |  | > 100 | > 100 | > 100 | > 100 | > 100 | > 100 | > 100 | > 100 | > 100 | > 100 | > 100 | > 100 | > 100 | > 100 | > 100
11 | CC(C)(C)[Si](C)(C)OCC1OC(n2cnc3c(N)ncnc32)C2OC(=S)OC12 (stereo not drawn) |  | > 100 |  |  |  | > 100 | > 100 | 91.9 |  | > 100 | 74.7 | > 100 |  | > 100 | 93.4 | > 100 | 48.3 | 81.2 | > 100 | 94
12 | CCOc1ccc(/C=C2\N=C(c3ccccc3)OC2=O)cc1 |  |  | > 100 |  |  | > 100 | > 100 | > 100 | > 100 | > 100 | > 100 |  | > 100 | > 100 | > 100 |  | > 100 | > 100 | > 100 | 
13 | CN1C2CCC1/C(=C/c1cccc3c1OCO3)C(=O)/C2=C\c1cccc2c1OCO2 |  |  | > 100 | > 100 | > 100 | 98.7 | > 100 | > 100 | > 100 | > 100 |  |  | > 100 |  |  |  |  |  |  | 
14 | Fc1ccc(Nc2nc(Cl)c3[nH]cnc3n2)cc1Cl | > 100 | > 100 | > 100 |  |  | > 100 | > 100 | > 100 | > 100 | > 100 | > 100 | > 100 | > 100 | > 100 | > 100 | > 100 | > 100 | > 100 | > 100 | > 100
15 | C=C=C[P+](c1ccccc1)(c1ccccc1)c1ccccc1 | 17.7 | > 100 | > 100 | > 100 | 54.8 |  | 45.7 | 34.4 | > 100 |  |  |  |  |  |  |  |  |  |  | 
16 | CC(=O)CCC#Cc1ccccc1C(=O)C(C)=[N+]=[N-] |  | > 100 | > 100 | > 100 | 90.1 | > 100 | > 100 | > 100 | > 100 | > 100 |  |  | > 100 |  |  |  |  |  |  | 
